Test results taken from ChEMBL document CHEMBL4800726, “Data for DCP probe MSC-4381” (2021).

Assays:
[1] = target: Delta-type opioid receptor (Homo sapiens, UniProt P41143); experiment: GPCRScan assay: inhibition of DOR; set-up: radioligand conc. used [nm] 1.0 – 2.0, parental cells stable HEK
[2] = target: 5-hydroxytryptamine receptor 1D (Homo sapiens) (UniProt P28221); conditions: Compound concentration 10.0 uM
[3] = target: D(3) dopamine receptor (Homo sapiens) (UniProt P35462); conditions: Compound concentration 10.0 uM
[4] = target: Mu-type opioid receptor (Homo sapiens) (UniProt P35372); conditions: Compound concentration 10.0 uM
[5] = target: Histamine H3 receptor (Homo sapiens) (UniProt Q9Y5N1); conditions: Compound concentration 10.0 uM
[6] = target: T1, 5-hydroxytryptamine receptor 5A (Homo sapiens, UniProt P47898); experiment: GPCRScan assay: inhibition of 5-HT5A; set-up: radioligand conc. used [nm] 2.0 - 3.3, parental cells Flp-In CHO
[7] = target: Adenosine receptor A1 (Homo sapiens) (UniProt P30542); experiment: A1 (h) Eurofins-Cerep binding assay; set-up: ligand concentration 1 nM; conditions: filed as antagonist, Compound concentration 10.0 uM
[8] = target: Adenosine receptor A2a (Homo sapiens) (UniProt P29274); experiment: A2A (h) Eurofins-Cerep binding assay; set-up: ligand concentration 6 nM; conditions: filed as agonist, Compound concentration 10.0 uM
[9] = target: Adenosine receptor A3 (Homo sapiens) (UniProt P0DMS8); experiment: A3 (h) Eurofins-Cerep binding assay; set-up: ligand concentration 0.15 nM; conditions: filed as agonist, Compound concentration 10.0 uM
[10] = target: Adrenergic receptor alpha-2 (Rattus norvegicus) (UniProt P22086+P19328+P22909); experiment: Alpha2 (non-selective) Eurofins-Cerep binding assay; type: protein assay; set-up: ligand concentration 1 nM; conditions: filed as antagonist, Compound concentration 10.0 uM
[11] = target: Type-1 angiotensin II receptor (Homo sapiens) (UniProt P30556); experiment: AT1 (h) Eurofins-Cerep binding assay; set-up: ligand concentration 0.05 nM; conditions: filed as antagonist, Compound concentration 10.0 uM
[12] = target: T2, GABA-A receptor; anion channel (Rattus norvegicus) (UniProt O09028+P15431+P18506+P18508+P19969+P20236+P23574+P23576+P28471+P28473+P30191+P62813+P63079+P63138+Q91ZM7+Q9ES14); experiment: BZD (central) Eurofins-Cerep binding assay; type: protein-complex assay; set-up: ligand concentration 0.4 nM; conditions: filed as agonist, Compound concentration 10.0 uM
[13] = target: Cholecystokinin receptor type A (Homo sapiens) (UniProt P32238); experiment: CCK1 (CCKA) (h) Eurofins-Cerep binding assay; set-up: ligand concentration 0.08 nM; conditions: filed as agonist, Compound concentration 10.0 uM
[14] = target: D(2) dopamine receptor (Homo sapiens) (UniProt P14416); experiment: D2S (h) Eurofins-Cerep binding assay; set-up: ligand concentration 0.3 nM; conditions: filed as antagonist, Compound concentration 10.0 uM
[15] = target: T2, GABA-A receptor; anion channel (Rattus norvegicus); experiment: GABA (non-selective) Eurofins-Cerep binding assay; type: protein-complex assay; set-up: ligand concentration 10 nM; conditions: filed as agonist, Compound concentration 10.0 uM
[16] = target: Galanin receptor type 2 (Homo sapiens) (UniProt O43603); experiment: GAL2 (h) Eurofins-Cerep binding assay; set-up: ligand concentration 0.05 nM; conditions: filed as agonist, Compound concentration 10.0 uM
[17] = target: C-C chemokine receptor type 1 (Homo sapiens) (UniProt P32246); experiment: CCR1 (h) Eurofins-Cerep binding assay; set-up: ligand concentration 0.01 nM; conditions: filed as agonist, Compound concentration 10.0 uM
[18] = target: Histamine H1 receptor (Homo sapiens) (UniProt P35367); experiment: H1 (h) Eurofins-Cerep binding assay; set-up: ligand concentration 1 nM; conditions: filed as antagonist, Compound concentration 10.0 uM
[19] = target: Histamine H2 receptor (Homo sapiens) (UniProt P25021); experiment: H2 (h) Eurofins-Cerep binding assay; set-up: ligand concentration 0.075 nM; conditions: filed as antagonist, Compound concentration 10.0 uM
[20] = target: Melanocortin receptor 4 (Homo sapiens) (UniProt P32245); experiment: MC4 (h) Eurofins-Cerep binding assay; set-up: ligand concentration 0.05 nM; conditions: filed as agonist, Compound concentration 10.0 uM
[21] = target: Muscarinic acetylcholine receptor M3 (Homo sapiens) (UniProt P20309); experiment: M3 (h) Eurofins-Cerep binding assay; set-up: ligand concentration 0.2 nM; conditions: filed as antagonist, Compound concentration 10.0 uM
[22] = target: Substance-K receptor (Homo sapiens) (UniProt P21452); experiment: NK2 (h) Eurofins-Cerep binding assay; set-up: ligand concentration 0.1 nM; conditions: filed as agonist, Compound concentration 10.0 uM
[23] = target: Neuromedin-K receptor (Homo sapiens) (UniProt P29371); experiment: NK3 (h) Eurofins-Cerep binding assay; set-up: ligand concentration 0.4 nM; conditions: filed as antagonist, Compound concentration 10.0 uM
[24] = target: Neuropeptide Y receptor type 2 (Homo sapiens) (UniProt P49146); experiment: Y2 (h) Eurofins-Cerep binding assay; set-up: ligand concentration 0.015 nM; conditions: filed as agonist, Compound concentration 10.0 uM
[25] = target: Kappa-type opioid receptor (Homo sapiens) (UniProt P41145); experiment: kappa (h) (KOP) Eurofins-Cerep binding assay; set-up: ligand concentration 0.5 nM; conditions: filed as agonist, Compound concentration 10.0 uM
[26] = target: Mu-type opioid receptor (Homo sapiens) (UniProt P35372); experiment: mu (MOP) (h) Eurofins-Cerep binding assay; set-up: ligand concentration 0.5 nM; conditions: filed as agonist, Compound concentration 10.0 uM
[27] = target: 5-hydroxytryptamine receptor 2A (Homo sapiens) (UniProt P28223); experiment: 5-HT2A (h) Eurofins-Cerep binding assay; set-up: ligand concentration 0.5 nM; conditions: filed as antagonist, Compound concentration 10.0 uM
[28] = target: 5-hydroxytryptamine receptor 2B (Homo sapiens) (UniProt P41595); experiment: 5-HT2B (h) Eurofins-Cerep binding assay; set-up: ligand concentration 0.2 nM; conditions: filed as agonist, Compound concentration 10.0 uM
[29] = target: T1, 5-hydroxytryptamine receptor 5A; experiment: 5-HT5a (h) Eurofins-Cerep binding assay; set-up: ligand concentration 1.5 nM; conditions: filed as agonist, Compound concentration 10.0 uM
[30] = target: 5-hydroxytryptamine receptor 6 (Homo sapiens, UniProt P50406); experiment: 5-HT6 (h) Eurofins-Cerep binding assay; set-up: ligand concentration 2 nM; conditions: filed as agonist, Compound concentration 10.0 uM
[31] = target: 5-hydroxytryptamine receptor 7 (Homo sapiens) (UniProt P34969); experiment: 5-HT7 (h) Eurofins-Cerep binding assay; set-up: ligand concentration 4 nM; conditions: filed as agonist, Compound concentration 10.0 uM
[32] = target: L-type Ca2+ channel (dihydropyridine site) (Rattus norvegicus, UniProt P22002+P27732+Q02485); experiment: Ca2+ channel (L, dihydropyridine site) Eurofins-Cerep binding assay; type: protein assay; set-up: incubation time 90 min, incubation temperature RT, ligand concentration 0.1 nM; conditions: rat cerebral cortex, probe [3H]nitrendipine, compound concentration 10 uM, read-out: % Inhibition of Control Specific Binding (Mean n=2)
[33] = target: L-type Ca2+ channel (diltiazem site, benzothiazepines) (Rattus norvegicus, UniProt P22002+P27732+Q02485); experiment: Ca2+ channel (L, diltiazem site) (benzothiazepines) Eurofins-Cerep binding assay; type: protein assay; set-up: incubation time 120 min, incubation temperature RT, ligand concentration 15 nM; conditions: rat cerebral cortex, probe [3H]diltiazem, compound concentration 10 uM, read-out: % Inhibition of Control Specific Binding (Mean n=2)
[34] = target: L-type Ca2+ channel (verapamil site, phenylalkylamine) (Rattus norvegicus, UniProt P22002+P27732+Q02485); experiment: Ca2+ channel (L, verapamil site) (phenylalkylamine) Eurofins-Cerep binding assay; type: protein assay; set-up: incubation time 120 min, incubation temperature RT, ligand concentration 3 nM; conditions: rat cerebral cortex, probe [3H]D888, compound concentration 10 uM, read-out: % Inhibition of Control Specific Binding (Mean n=2)
Rattus norvegicus = organism: Rattus norvegicus; experiment: KV channel Eurofins-Cerep binding assay; conditions: filed as antagonist, Compound concentration 10.0 uM
[35] = target: Sodium-dependent noradrenaline transporter (Homo sapiens) (UniProt P23975); experiment: norepinephrine transporter (h) Eurofins-Cerep binding assay; set-up: ligand concentration 1 nM; conditions: filed as antagonist, Compound concentration 10.0 uM
[36] = target: Sodium-dependent serotonin transporter (Homo sapiens) (UniProt P31645); experiment: 5-HT transporter (h) Eurofins-Cerep binding assay; set-up: ligand concentration 2 nM; conditions: filed as antagonist, Compound concentration 10.0 uM
[37] = target: Vasopressin V1a receptor (Homo sapiens) (UniProt P37288); experiment: V1a (h) Eurofins-Cerep Cellular and Nuclear Receptor Functional Assays; conditions: Compound concentration 10.0 uM
[38] = target: D(1B) dopamine receptor (Homo sapiens) (UniProt P21918); conditions: Compound concentration 10.0 uM
[39] = target: Histamine H2 receptor (Homo sapiens) (UniProt P25021); conditions: Compound concentration 10.0 uM
[40] = target: Muscarinic acetylcholine receptor M3 (Homo sapiens) (UniProt P20309); conditions: Compound concentration 10.0 uM

T1 sequence (P47898 whole entry): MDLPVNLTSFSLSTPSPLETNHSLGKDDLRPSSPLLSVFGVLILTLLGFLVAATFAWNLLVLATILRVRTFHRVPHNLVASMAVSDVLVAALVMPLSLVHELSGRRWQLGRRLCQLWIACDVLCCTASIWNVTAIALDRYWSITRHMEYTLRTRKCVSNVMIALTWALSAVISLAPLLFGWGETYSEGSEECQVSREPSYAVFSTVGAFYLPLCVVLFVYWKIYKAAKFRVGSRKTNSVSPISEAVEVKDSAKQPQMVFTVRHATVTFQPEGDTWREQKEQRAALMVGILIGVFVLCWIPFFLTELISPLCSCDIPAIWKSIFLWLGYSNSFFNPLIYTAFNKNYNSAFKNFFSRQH
Chain of Muscarinic acetylcholine receptor M3 (Homo sapiens) (P20309 whole entry, looked up): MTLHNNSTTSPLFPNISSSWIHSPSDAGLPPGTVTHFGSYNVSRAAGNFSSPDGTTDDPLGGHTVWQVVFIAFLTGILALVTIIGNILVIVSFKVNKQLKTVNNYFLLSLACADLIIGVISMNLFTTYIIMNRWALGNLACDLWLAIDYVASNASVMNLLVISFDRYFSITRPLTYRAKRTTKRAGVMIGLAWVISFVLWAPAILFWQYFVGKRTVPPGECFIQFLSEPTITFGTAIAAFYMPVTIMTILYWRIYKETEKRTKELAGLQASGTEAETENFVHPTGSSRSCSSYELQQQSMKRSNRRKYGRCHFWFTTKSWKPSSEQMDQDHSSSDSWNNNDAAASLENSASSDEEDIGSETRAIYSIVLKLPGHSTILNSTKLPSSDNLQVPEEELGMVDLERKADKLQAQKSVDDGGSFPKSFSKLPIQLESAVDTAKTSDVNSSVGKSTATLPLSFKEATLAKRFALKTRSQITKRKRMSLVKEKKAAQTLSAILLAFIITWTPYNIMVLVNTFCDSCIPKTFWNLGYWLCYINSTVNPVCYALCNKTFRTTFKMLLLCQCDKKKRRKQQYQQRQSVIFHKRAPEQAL
Chain of Vasopressin V1a receptor (Homo sapiens) (P37288 whole entry, looked up): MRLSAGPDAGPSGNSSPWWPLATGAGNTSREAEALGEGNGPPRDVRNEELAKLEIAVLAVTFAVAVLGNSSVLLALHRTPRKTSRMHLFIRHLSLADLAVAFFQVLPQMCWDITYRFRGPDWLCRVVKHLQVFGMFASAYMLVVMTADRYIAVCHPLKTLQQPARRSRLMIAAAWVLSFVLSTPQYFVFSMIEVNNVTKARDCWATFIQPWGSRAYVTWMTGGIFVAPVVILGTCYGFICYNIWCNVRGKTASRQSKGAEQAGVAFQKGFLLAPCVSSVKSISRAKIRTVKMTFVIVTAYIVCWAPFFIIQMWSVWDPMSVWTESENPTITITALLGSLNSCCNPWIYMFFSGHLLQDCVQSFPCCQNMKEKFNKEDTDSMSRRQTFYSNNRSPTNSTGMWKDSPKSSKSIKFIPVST
Chain of Mu-type opioid receptor (Homo sapiens) (P35372 whole entry): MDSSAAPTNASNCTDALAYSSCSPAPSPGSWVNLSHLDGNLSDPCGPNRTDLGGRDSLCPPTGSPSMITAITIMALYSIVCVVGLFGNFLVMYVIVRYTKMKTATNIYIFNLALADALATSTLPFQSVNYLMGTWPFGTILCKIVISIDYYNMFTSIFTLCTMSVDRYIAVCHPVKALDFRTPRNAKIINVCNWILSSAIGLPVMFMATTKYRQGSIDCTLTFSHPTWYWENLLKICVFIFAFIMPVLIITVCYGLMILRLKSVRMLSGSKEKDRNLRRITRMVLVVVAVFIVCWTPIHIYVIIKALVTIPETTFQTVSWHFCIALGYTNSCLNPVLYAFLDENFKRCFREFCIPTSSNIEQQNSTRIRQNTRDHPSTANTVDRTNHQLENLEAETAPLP
Chain of Histamine H2 receptor (Homo sapiens) (P25021 whole entry): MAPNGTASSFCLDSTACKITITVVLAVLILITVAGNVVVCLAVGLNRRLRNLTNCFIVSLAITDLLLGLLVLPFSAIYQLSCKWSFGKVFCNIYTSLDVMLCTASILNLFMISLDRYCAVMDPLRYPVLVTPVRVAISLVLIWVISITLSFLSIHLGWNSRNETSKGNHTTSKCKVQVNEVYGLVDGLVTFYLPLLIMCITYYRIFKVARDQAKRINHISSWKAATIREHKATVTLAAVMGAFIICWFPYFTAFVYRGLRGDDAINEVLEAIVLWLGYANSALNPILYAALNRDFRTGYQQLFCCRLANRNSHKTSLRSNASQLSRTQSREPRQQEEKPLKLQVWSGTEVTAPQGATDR
Chain of Delta-type opioid receptor (P41143 whole entry): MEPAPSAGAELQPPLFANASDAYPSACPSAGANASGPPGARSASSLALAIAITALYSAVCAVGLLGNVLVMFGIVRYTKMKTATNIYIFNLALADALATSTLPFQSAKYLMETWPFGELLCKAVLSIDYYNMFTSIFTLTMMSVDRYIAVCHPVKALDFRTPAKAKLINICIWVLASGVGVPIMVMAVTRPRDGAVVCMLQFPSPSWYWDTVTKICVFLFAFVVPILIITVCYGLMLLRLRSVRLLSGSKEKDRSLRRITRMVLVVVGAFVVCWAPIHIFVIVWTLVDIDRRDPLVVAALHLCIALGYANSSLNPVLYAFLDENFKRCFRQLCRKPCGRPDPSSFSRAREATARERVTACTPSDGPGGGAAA
Chain of D(1B) dopamine receptor (Homo sapiens) (P21918 whole entry): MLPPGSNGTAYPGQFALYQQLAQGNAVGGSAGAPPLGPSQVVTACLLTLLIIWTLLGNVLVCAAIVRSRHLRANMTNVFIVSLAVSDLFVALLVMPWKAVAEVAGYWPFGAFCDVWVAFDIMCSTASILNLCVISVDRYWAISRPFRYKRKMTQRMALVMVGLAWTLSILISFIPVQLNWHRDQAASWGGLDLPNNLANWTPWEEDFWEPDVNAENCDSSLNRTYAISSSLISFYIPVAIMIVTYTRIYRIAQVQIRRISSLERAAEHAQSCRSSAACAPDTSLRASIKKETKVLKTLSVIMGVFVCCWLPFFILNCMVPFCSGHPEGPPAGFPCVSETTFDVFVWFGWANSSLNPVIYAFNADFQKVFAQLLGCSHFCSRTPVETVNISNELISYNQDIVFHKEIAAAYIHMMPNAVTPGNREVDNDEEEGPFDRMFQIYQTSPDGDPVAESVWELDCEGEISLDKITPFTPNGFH
Chain of 5-hydroxytryptamine receptor 7 (Homo sapiens) (P34969 whole entry): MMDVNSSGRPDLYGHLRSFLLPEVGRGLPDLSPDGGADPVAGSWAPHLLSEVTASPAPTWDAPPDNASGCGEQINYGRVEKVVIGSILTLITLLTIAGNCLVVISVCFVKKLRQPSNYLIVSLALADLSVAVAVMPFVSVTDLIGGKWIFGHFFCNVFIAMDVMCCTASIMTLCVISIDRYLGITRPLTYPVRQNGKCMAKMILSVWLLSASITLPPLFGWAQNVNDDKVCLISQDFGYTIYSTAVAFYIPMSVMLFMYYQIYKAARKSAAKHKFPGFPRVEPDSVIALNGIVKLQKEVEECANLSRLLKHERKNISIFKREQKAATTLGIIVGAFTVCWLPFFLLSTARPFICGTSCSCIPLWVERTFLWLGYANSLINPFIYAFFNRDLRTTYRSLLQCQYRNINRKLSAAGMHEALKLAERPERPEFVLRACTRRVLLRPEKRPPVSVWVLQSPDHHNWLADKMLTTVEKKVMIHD
Chain of 5-hydroxytryptamine receptor 2A (Homo sapiens) (P28223 whole entry): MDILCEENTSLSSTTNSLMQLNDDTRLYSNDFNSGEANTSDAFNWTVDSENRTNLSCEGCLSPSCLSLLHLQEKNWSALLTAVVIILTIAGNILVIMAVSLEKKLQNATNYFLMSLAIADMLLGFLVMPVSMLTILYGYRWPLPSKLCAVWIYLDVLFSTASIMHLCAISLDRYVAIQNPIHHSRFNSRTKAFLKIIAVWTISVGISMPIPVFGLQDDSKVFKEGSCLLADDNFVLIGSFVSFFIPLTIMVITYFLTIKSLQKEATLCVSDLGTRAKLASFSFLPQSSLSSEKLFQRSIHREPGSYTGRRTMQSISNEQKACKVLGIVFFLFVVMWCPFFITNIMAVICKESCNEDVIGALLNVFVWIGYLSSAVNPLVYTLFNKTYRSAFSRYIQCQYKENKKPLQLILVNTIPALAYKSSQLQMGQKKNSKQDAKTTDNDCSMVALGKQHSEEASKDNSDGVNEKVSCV
Chain of Melanocortin receptor 4 (Homo sapiens) (P32245 whole entry): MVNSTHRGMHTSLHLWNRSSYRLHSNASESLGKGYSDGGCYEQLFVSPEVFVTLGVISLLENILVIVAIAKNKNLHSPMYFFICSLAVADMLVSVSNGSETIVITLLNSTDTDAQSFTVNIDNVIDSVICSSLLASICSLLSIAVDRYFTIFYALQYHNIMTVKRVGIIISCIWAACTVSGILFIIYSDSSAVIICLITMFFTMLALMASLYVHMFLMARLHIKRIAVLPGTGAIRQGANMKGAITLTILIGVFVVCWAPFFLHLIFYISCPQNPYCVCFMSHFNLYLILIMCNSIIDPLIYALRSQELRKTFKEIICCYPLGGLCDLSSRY
Chain of Histamine H3 receptor (Homo sapiens) (Q9Y5N1 whole entry): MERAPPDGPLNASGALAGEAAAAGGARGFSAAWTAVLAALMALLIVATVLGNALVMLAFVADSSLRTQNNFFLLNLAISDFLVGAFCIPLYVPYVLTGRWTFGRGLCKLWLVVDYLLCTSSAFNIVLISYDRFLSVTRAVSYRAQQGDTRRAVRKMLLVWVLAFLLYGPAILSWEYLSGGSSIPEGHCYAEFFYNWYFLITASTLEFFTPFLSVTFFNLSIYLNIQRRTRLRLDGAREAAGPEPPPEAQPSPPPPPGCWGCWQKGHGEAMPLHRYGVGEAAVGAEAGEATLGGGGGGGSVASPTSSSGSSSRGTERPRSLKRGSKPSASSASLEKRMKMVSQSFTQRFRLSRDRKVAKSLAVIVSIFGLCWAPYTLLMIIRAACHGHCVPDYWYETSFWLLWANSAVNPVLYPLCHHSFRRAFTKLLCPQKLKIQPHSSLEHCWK

Work on `COc1cc(C(=O)O)ncc1C#Cc1ccccc1NS(=O)(=O)c1cccc2c(N(C)C)ccnc12` [MSC-0516] yielded a Ki ([1]; read-out: Ki) of 598 nM, a Ki ([1]; read-out: pKi (converted)) of 589 nM and an inhibition [2] of 11.4%. It also gave an inhibition [3] of -9.21%, an inhibition [4] of 35.4% and an inhibition [5] of 6.76%.
`CCOc1ccc(S(=O)(=O)Nc2ccc(Cl)cc2C#Cc2cnc(C(=O)O)cc2OC)c2ncccc12` [MSC-4381] was tested, and the Ki [6] was 1630 nM, the % Inhibition of Control Specific Binding (Mean n=2) [7] was 56.2% and the % Inhibition of Control Specific Binding (Mean n=2) [8] was -5.5%. It also gave a % Inhibition of Control Specific Binding (Mean n=2) [9] of 28.1%, a % Inhibition of Control Specific Binding (Mean n=2) [10] of -8.2% and a % Inhibition of Control Specific Binding (Mean n=2) [11] of 4.2%. The % Inhibition of Control Specific Binding (Mean n=2) [12] was -7.6%, the % Inhibition of Control Specific Binding (Mean n=2) [13] was -18.1% and the % Inhibition of Control Specific Binding (Mean n=2) [14] was 9.2%. It also gave a % Inhibition of Control Specific Binding (Mean n=2) [15] of 1.2%, a % Inhibition of Control Specific Binding (Mean n=2) [16] of 11.1% and a % Inhibition of Control Specific Binding (Mean n=2) [17] of -4.3%. For the same molecule, the % Inhibition of Control Specific Binding (Mean n=2) [18] was 27.6%, the % Inhibition of Control Specific Binding (Mean n=2) [19] was -16.1% and the % Inhibition of Control Specific Binding (Mean n=2) [20] was -8%. It also gave a % Inhibition of Control Specific Binding (Mean n=2) [21] of 8%, a % Inhibition of Control Specific Binding (Mean n=2) [22] of 46% and a % Inhibition of Control Specific Binding (Mean n=2) [23] of -8.7%. For the same molecule, the % Inhibition of Control Specific Binding (Mean n=2) [24] was 8%, the % Inhibition of Control Specific Binding (Mean n=2) [25] was -12.1% and the % Inhibition of Control Specific Binding (Mean n=2) [26] was -8.9%. For the same molecule, the % Inhibition of Control Specific Binding (Mean n=2) [27] was -4.1%, the % Inhibition of Control Specific Binding (Mean n=2) [28] was -47.1% and the % Inhibition of Control Specific Binding (Mean n=2) [29] was -20.7%. The % Inhibition of Control Specific Binding (Mean n=2) [30] was 32%, the % Inhibition of Control Specific Binding (Mean n=2) [31] was -6.6% and the inhibition at 90 min, 10 µM [32] was -11%. The inhibition at 120 min, 10 µM [33] was -8.8%, the inhibition at 120 min, 10 µM [34] was -9.8% and the % Inhibition of Control Specific Binding (Mean n=2) (Rattus norvegicus) was -5.9%. The % Inhibition of Control Specific Binding (Mean n=2) [35] was 30.4%, the % Inhibition of Control Specific Binding (Mean n=2) [36] was 2.4% and the % Inhibition of Control Agonist Response (Mean n=2) [37] was 34.9%. The % of Control Agonist Response (Mean n=2) [37] was -3.1%, the inhibition [38] was 47.7% and the inhibition [39] was 24.2%. For the same molecule, the inhibition [40] was 9.34%.
